# Test results taken from patent US9000025B2, “Autotaxin inhibitors and uses thereof” (Amira Pharmaceuticals, Inc., priority 2010, dated 2015).
# Target: T1, autotaxin (ATX) (Homo sapiens, UniProt Q13822)
# T1 construct: conditioned medium from the human melanoma cell line, MDA-MB-4355, which endogenously expresses autotaxin; host or cells: MDA-MB-435S human melanoma cells; serum-free conditioned medium, concentrated 20-fold
# Assay: Native Autotaxin Choline Release Assay
# Assay type: biochemical
# Conditions: autotaxin in conditioned medium from human melanoma cell line; choline released from LPC; read-out: MDA-MB-435S Assay IC50
# Procedure, shortened: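 Native ATX from conditioned serum-free, phenol-red-free DMEM of confluent cells cultured 48 h; LPC as substrate. Released choline detected with choline oxidase/peroxidase/4-aminoantipyrine colour mix in 50 mM Tris pH 8, 10 min at 37 °C, absorbance 555 nm; choline quantified against standard curve, equated to LPA formed.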
row,IC50,SMILES
1,< 300 nM,"CCn1cc(-n2c(C)c(Sc3cc(F)cc(C(=O)O)c3)c3ccc(Cl)c(F)c32)cn1 [Compound 4-2, 3-[6-Chloro-1-(1-ethyl-1H-pyrazol-4-yl)-7-fluoro-2-methyl-1H-indol-3-ylsulfanyl]-5-fluoro-benzoic acid]"
2,< 300 nM,"CCn1cc(-n2c(C)c(Sc3cccc(C(=O)O)c3F)c3ccc(Cl)c(F)c32)cn1 [Compound 4-3, 3-[6-Chloro-1-(1-ethyl-1H-pyrazol-4-yl)-7-fluoro-2-methyl-1H-indol-3-ylsulfanyl]-2-fluoro-benzoic acid]"
3,< 300 nM,"CCCn1cc(-n2c(C)c(Sc3cccc(C(=O)O)c3F)c3ccc(Cl)c(F)c32)cn1 [Compound 4-4, 3-[6-Chloro-7-fluoro-2-methyl-1-(1-propyl-1H-pyrazol-4-yl)-1H-indol-3-ylsulfanyl]-2-fluoro-benzoic acid]"
4,< 300 nM,"CCCn1cc(-n2c(C)c(Sc3cc(F)cc(C(=O)O)c3)c3ccc(Cl)c(F)c32)cn1 [Compound 4-5, 3-[6-Chloro-7-fluoro-2-methyl-1-(1-propyl-1H-pyrazol-4-yl)-1H-indol-3-ylsulfanyl]-5-fluoro-benzoic acid]"
5,< 300 nM,"Cc1c(Sc2cc(F)cc(C(=O)O)c2)c2ccc(Cl)c(F)c2n1-c1cnn(C(C)C)c1 [Compound 4-6, 3-[6-Chloro-7-fluoro-1-(1-isopropyl-1H-pyrazol-4-yl)-2-methyl-1H-indol-3-ylsulfanyl]-5-fluoro-benzoic acid]"
6,< 300 nM,"CCn1cc(-n2c(C)c(Sc3cccc(C(=O)NS(=O)(=O)c4ccccc4)c3F)c3ccc(Cl)c(F)c32)cn1 [Compound 4-7, N-{3-[6-Chloro-1-(1-ethyl-1H-pyrazol-4-yl)-7-fluoro-2-methyl-1H-indol-3-ylsulfanyl]-2-fluoro-benzoyl}-benzenesulfonamide]"
7,< 300 nM,"CCCn1cc(-n2c(C)c(Sc3cccc(C(=O)NS(=O)(=O)c4ccccc4)c3F)c3ccc(Cl)c(F)c32)cn1 [Compound 4-8, N-{3-[6-Chloro-1-(1-propyl-1H-pyrazol-4-yl)-7-fluoro-2-methyl-1H-indol-3-ylsulfanyl]-2-fluoro-benzoyl}-benzenesulfonamide]"
8,< 300 nM,"CCn1cc(-n2c(C)c(Sc3ccc(C)c(C(=O)O)c3)c3ccc(Cl)c(F)c32)cn1 [Compound 4-9, 5-[6-Chloro-1-(1-ethyl-1H-pyrazol-4-yl)-7-fluoro-2-methyl-1H-indol-3-ylsulfanyl]-2-methyl-benzoic acid]"
9,< 300 nM,"CCCn1cc(-n2c(C)c(Sc3ccc(OC)c(C(=O)O)c3)c3ccc(Cl)c(F)c32)cn1 [Compound 4-10, 5-[6-Chloro-7-fluoro-2-methyl-1-(1-propyl-1H-pyrazol-4-yl)-1H-indol-3-ylsulfanyl]-2-methoxy-benzoic acid]"
10,< 300 nM,"CCn1cc(-n2c(C)c(Sc3cccc(C(=O)O)c3F)c3c(F)cc(Cl)cc32)cn1 [Compound 4-11, 3-[6-Chloro-1-(1-ethyl-1H-pyrazol-4-yl)-4-fluoro-2-methyl-1H-indol-3-ylsulfanyl]-2-fluoro-benzoic acid]"
11,< 300 nM,"CCCn1cc(-n2c(C)c(Sc3cccc(CC(=O)O)c3F)c3ccc(Cl)c(F)c32)cn1 [Compound 4-12, {3-[6-Chloro-7-fluoro-2-methyl-1-(1-propyl-1H-pyrazol-4-yl)-1H-indol-3-ylsulfanyl]-2-fluoro-phenyl}-acetic acid]"
12,< 300 nM,"CCCn1cc(-n2c(C)c(Sc3ccc(C)c(C(=O)O)c3)c3ccc(Cl)c(F)c32)cn1 [Compound 4-13, 5-[6-Chloro-1-(1-propyl-1H-pyrazol-4-yl)-7-fluoro-2-methyl-1H-indol-3-ylsulfanyl]-2-methyl-benzoic acid]"
13,< 300 nM,"CCCn1cc(-n2c(C)c(Sc3ccc(C(F)(F)F)c(CC(=O)O)c3)c3ccc(Cl)c(F)c32)cn1 [Compound 4-14, {5-[6-Chloro-7-fluoro-2-methyl-1-(1-propyl-1H-pyrazol-4-yl)-1H-indol-3-ylsulfanyl]-2-trifluoromethyl-phenyl}-acetic acid]"
14,< 300 nM,"CCn1cc(-n2c(C)c(Sc3cccc(CC(=O)O)c3F)c3ccc(Cl)c(F)c32)cn1 [Compound 4-15, {3-[6-Chloro-1-(1-ethyl-1H-pyrazol-4-yl)-7-fluoro-2-methyl-1H-indol-3-ylsulfanyl]-2-fluoro-phenyl}-acetic acid]"

# More lines, now with the values behind:
row,SMILES,IC50
1,"Cc1c(Sc2cccc(C(=O)O)c2)c2ccc(Cl)c(F)c2n1-c1cnn(C(C)C)c1 [Compound 3-56, 3-[6-Chloro-7-fluoro-1-(1-isopropyl-1H-pyrazol-4-yl)-2-methyl-1H-indol-3-ylsulfanyl]-benzoic acid]",< 300 nM
2,"Cc1c(Sc2cccc(C(=O)O)c2)c2ccc(Cl)c(F)c2n1-c1cnn(C)c1 [Compound 3-57, 3-[6-Chloro-7-fluoro-2-methyl-1-(1-methyl-1H-pyrazol-4-yl)-1H-indol-3-ylsulfanyl]-benzoic acid]",< 300 nM
3,"CCn1ccc(-n2c(C)c(Sc3cccc(C(=O)O)c3)c3ccc(Cl)c(F)c32)n1 [Compound 3-58, 3-[6-Chloro-1-(1-ethyl-1H-pyrazol-3-yl)-7-fluoro-2-methyl-1H-indol-3-ylsulfanyl]-benzoic acid]",300 to 1000 nM
4,"Cc1c(Sc2cccc(C(=O)O)c2)c2ccc(Cl)c(F)c2n1-c1cnn(C(C)(C)C)c1 [Compound 3-60, 3-[1-(1-tert-Butyl-1H-pyrazol-4-yl)-6-chloro-7-fluoro-2-methyl-1H-indol-3-ylsulfanyl]-benzoic acid]",< 300 nM
5,"Cc1cc(-n2c(C)c(Sc3cccc(C(=O)O)c3)c3ccc(Cl)c(F)c32)cs1 [Compound 3-61, 3-[6-Chloro-7-fluoro-2-methyl-1-(5-methyl-thiophen-3-yl)-1H-indol-3-ylsulfanyl]-benzoic acid]",< 300 nM
6,"Cc1ccc(-n2c(C)c(Sc3cccc(C(=O)O)c3)c3ccc(Cl)c(F)c32)s1 [Compound 3-62, 3-[6-Chloro-7-fluoro-2-methyl-1-(5-methyl-thiophen-2-yl)-1H-indol-3-ylsulfanyl]-benzoic acid]",300 to 1000 nM
